Experiments:
olive seedling = assay: Application to olive seedling stem under greenhouse conditions (parafilm, flexible or rigid tubes); conditions: rigid tubes
Description: EGO10 either with PVAc, or HPC+glycerin were applied on olive seedling stem by the use of parafilm cover as the apparatus, under greenhouse conditions (FIG. 15). Greenhouse conditions include controlled room temperature of 25° C. In each experiment, 10 plants were used for each treatment. The substances were applied on the stem by a spatula and covered with parafilm.
In attempt to improve the performance of the apparatus, different substances and different cover were used. Four formulations were developed and tested. These formulations are based on polysaccharide-sorbent-humidifier substances while the main difference between them is the viscosity of the final product and the ability to retain and release of the active ingredient (EGO 10). […] The cover consisted of a flexible plastic tube that was cut (FIG. 16A), placed on the seedling stem (FIG. 16B) and wrapped with transparent plaster (FIG. 16C). The plastic tubes were filled with the experimental material (FIG. 16D). Moist cotton was placed on both sides of the tubes to minimize water evaporation (FIG. 16E and FIG. 16F). Bud outgrowth was measured for 30 days.
Rigid plastic tubes were tested in order to determine their efficiency as a delivery device for application of the hormone formulations to plants. At first, eppendorf tubes served as prototype. The tubes ware cut from top to bottom and placed on the stem of seedlings. Each tube was sealed with a small moist cotton at the bottom, filled with 1 ml of the examined material and finally covered with transparent plastic tape (FIGS. 17A-17E). The tubes were filled with (HPC+glycerin), or PVAc and EGO10 In each experiment, 10 plants were used for each treatment. Greenhouse conditions include controlled room temperature of 25° C.
EGO10 (10 μM) or acetone control together with HPC+glycerin or PVAc were applied on the stem of olive cuttings by the use of rigid plastic tubes as described in Example 10 above.
Bud outgrowth of olive cuttings was measured until day 30.

Roses (Rosa Hybrida) = assay: EGO10 collar application to roses; type: in vivo
Description: Three replicates on experiments were done in two commercial plots. EGO10 was applied at the indicated concentrations as a collar in Eppendorf tube (FIG. 24).
HPC+glycerin and EGO10 (25 or 50 μM), provided in rigid tubes, were applied as described above (Example 13) to roses (Rosa hybrid golden gate). 20 days following application of the formulation by the delivery device, the length of axillary buds (in centimeters) was measured and the number of lateral buds was counted.

Hypericum plants = assay: EGO10 collar and granules application to Hypericum plants; type: in vivo, Hypericum calycinum or Hypericum perforatum
Description: EGO10 (25 and 50 μM) with HPC+glycerin were applied in rigid tubes, as described above (Example 13) to Hypericum calycinum or Hypericum perforatum (Ivory Spices of Danziger, result of breeding for ornamental). Two replicates on experiments were done in the greenhouse. EGO10 was applied at the indicated concentrations as a collar. Also, EGO10 was applied in another, new way of application—as granules of slow release of 3×10^−8 M—that were applied in the soil, close to the root zone. […] An example to the results of the collar treatment is in FIG. 27.

Almond = assay: EGO10 granules and collar application to almond in commercial nursery; type: in vivo, Prunus dulcis
Description: Two replicates on experiments were performed in commercial nursery.

Koroneiki olives = assay: EGO10 collar and granules application to Koroneiki olives; type: in vivo, Olea europaea L.; conditions: collar of 50 μM
Description: Since Koroneiki olives are one of the most abundant cultivars worldwide, the effect of application of collar of 50 μM and granules that release 3×10^−8 M on development of side branches in this cultivar was examined.

Tomato (Ikram cultivar) = assay: EGO10 collar combined with auxin spray on tomato; type: in vivo, Solanum lycopersicum
Description: The effect of EGO 10 combined with auxin was tested. […] Collar was applied 50 μM of EGO10 (FIG. 32) with a auxin daily spray (IAA) 5 ppm on the shoot tip. Also treatment with only the 50 μM collar of EGO10, an IAA treatment with no collar as a control for the auxin treatment and a control with no treatment were applied. Each treatment consisted of 10-12 plants, blocks of 4 plants were randomly distributed in the greenhouse.

SMILES: CC1=C[C@H](O/C=C2\Cc3c(n(C)c4ccccc34)C2=O)OC1=O [EGO10]
- plant growth (olive seedling; 10 μM with HPC+glycerin, greenhouse): without delaying plant growth
- bud outgrowth (olive seedling; 10 μM with HPC+glycerin, greenhouse, 30 days, not significantly different from control): some inhibition of bud outgrowth
- growth of treated olive buds (olive seedling; 50 μM with HPC+glycerin): grew properly
- bud outgrowth (olive seedling; 50 μM with HPC+glycerin, until day 30, vs acetone+HPC+glycerin): significantly inhibits bud outgrowth
- lateral branching (Roses (Rosa Hybrida); 25 or 50 μM with HPC+glycerin, collar in rigid tubes, 20 days): clear tendency of reduction of lateral branching
- development of water branches (Roses (Rosa Hybrida); collar, 25 or 50 μM): did not hinder development
- no. of axillary branches (Hypericum plants; 50 μM as collar in Eppendorf tubes, not significantly different): marked reduction in the no. of axillary branches
- no. of axillary branches (Hypericum plants; granules of slow release of 3×10^−8 M in the soil): did not result with substantial changes in the no. of axillary branches
- number of axillary branches (Almond; 3×10^−8 M as granules of controlled release): marked and significant reduction in the number of axillary branches
- number of axillary branches (Almond; both granules and collar): reduced the inhibitory effect of the granules on side branches
- side branches development (Koroneiki olives): effective in preventing side branches development
- bud outgrowth above the collar (Tomato (Ikram cultivar); 50 μM collar only): more moderate and not consistent respond
- bud outgrowth above the collar (Tomato (Ikram cultivar); 50 μM collar with auxin (IAA) daily spray 5 ppm): clear inhibition of bud outgrowth
